Measured values: patent publication US6472198B1, “Slow release substrates for driving microbial transformations of environmental contaminants” (The State of Oregon Acting by and through the State Board …, priority 1998, dated 2002)
“Also recorded” adds a separate entry of the source.

Tests used:
[1] = Hydrolysis rate category of organosilanes and organosiloxanes, approximately based on half lives; assay type: physicochemical; design: key: Slow - 1 month; Very Slow - Several months; Very Fast - days; Fast - weeks
[2] = Abiotic hydrolysis of TBOS and TKEBS in sterilized pH buffered solutions; assay type: physicochemical; details: for effect of temperature on hydrolysis: pH 7, 10 mg/L, 15 °C vs 30 °C; for factor of increase in rate of hydrolysis on ten-fold increase in concentration: pH 7, 30 °C, 10 mg/L to 100 mg/L
[3] = tested on: Pt. Mugu groundwater and aquifer solids microcosm; assay: Anaerobic reductive dechlorination of TCE in Pt. Mugu microcosm amended with TBOS; assay type: cell-based; details: for incubation time after which dechlorination of the substance was observed: TCE 5 mg/L, Pt. Mugu microcosm
[4] = Hydrolysis period of slow release compounds in bioremediation studies; assay type: physicochemical; details: TBOS to 1-butanol, TPOS to phenol
Text: These alcohols can then be used by the microorganisms to cometabolize halogenated organics, such as TCE, for example. As discussed in the Examples below, the decrease in TBOS in a poisoned (killed) control compared similarly to the nonpoisoned (live) microbially active system under anaerobic conditions. Microbial activity was indicated by the production of acetate, butanol, butyrate, and hydrogen in the live microcosms, and the lack of production in the poisoned control. […] Thus, TBOS is not directly degraded, but is first hydrolyzed by reactions with water to form 1-butanol, which can then be used to drive the aerobic cometabolism of chlorinated organics.

[5] = Solubility in water (statement); assay type: physicochemical
[6] = tested on: microbial culture grown on TBOS; assay: Aerobic cometabolism of TCE by microorganisms grown on TBOS; assay type: cell-based
Description: (§1) Gas phase TCE and cis-DCE concentrations were measured by injecting 10-100 μL of a gaseous sample into a HP-5890 gas chromatograph connected to a photoionization detector (PID) followed by a flame ionization detector (FID). Chromatographic separation was carried-out with a 30-m megabore GSQ-PLOT column from J&W Scientific (Folsom, Calif.). The GC operating conditions were as follows: injector temperature, 250° C.; detector temperature: 280° C.; the column was initially maintained at 40° C. for 2 minutes and then heated to 220° C. at 15° C./minute.
The microcosms for aerobic cometabolism studies were carried out as described in Example 1 under the heading “Aerobic Biodegradation.” The bacterial culture used was that described in Example 1 under the heading “Enrichment of Aerobic Culture.” cis-DCE and TCE stocks in water were prepared by saturating distilled water with cis-DCE and TCE at 30° C. TCE and cis-DCE dissolved in the water to their solubility limit. The aqueous phase from these stocks was then added to the microcosms to yield the required concentrations (0.8 mg/L for TCE and 2 mg/L for cis-DCE). TBOS was introduced into the microcosms by injecting pure TBOS liquid using a microliter syringe.
Microbial culture from the wastewater treatment plant of Corvallis, Oregon grown on TBOS was tested for its ability to cometabolize TCE and cis-DCE. Microcosms were constructed with 4.0 mg (dry weight) of culture enriched from a continuous-feed batch reactor according to the procedure described in Example 1. Three microcosms and a control were evaluated: a poisoned control (i.e., a killed microcosm) with TBOS and TCE; a biologically active microcosm with TBOS and TCE; and a resting cell microcosm with only TCE; and an acetylene block microcosm with TBOS and TCE (having acetylene in the head space). The acetylene block experiment was used to investigate the presence of a monooxygenase enzyme.

[7] = tested on: microbially active Site 300 groundwater microcosm; assay: Reductive dechlorination of TCE in Site 300 groundwater microcosm with TBOS and TKEBS added; assay type: cell-based; details: TCE additions at 0, 135, 160 days
Description: The TCE dechlorination experiments were conducted in the same way as described in Example 3. In these experiments, however, TBOS and TKEBS were amended to samples of the groundwater microcosms.
Shown in FIGS. 11a-11c is a microbial active version of a Site 300 microcosm with TBOS and TKEBS added. However in this case both ethybutanol and butanol are utilized, compared to the poisoned control where they accumulated. Acetate, butyrate and hydrogen are produced as a result of fermentation reactions. […] Three additions of TCE are transformed at 0, 135, and 160 days, with the corresponding increases in c-DCE occurring. Hydrogen is shown to be utilized upon TCE addition and produced once TCE transformation has stopped.

[8] = tested on: indigenous microorganisms in groundwater (Lawrence Livermore Site 300); assay: Anaerobic reductive dechlorination of TCE in Site 300 groundwater microcosms containing TKEBS; assay type: cell-based
Description: In initial studies, groundwater from Lawrence Livermore Laboratory(Site 300, D3 Well) was used to make up six different microcosms. Two of these microcosms were sterilized to form controls, one by the addition of mercuric chloride and the other by autoclaving. Two microcosms were amended with sodium benzoate (200 mg/L) as an additional carbon source and the last two were left untouched.
Later experiments were carried out to re-evaluate the anaerobic TCE transformation rates driven by TKEBS transformation. The culture used for these biodegradation studies were indigenous microorganisms stimulated from the groundwater (as described in Example 1) collected from the same site initially studied. The anaerobic biodegradation studies were carried out using 1L media bottles. The microcosms were prepared in an anaerobic glove box and then purged using treated (to remove oxygen) nitrogen to remove the hydrogen and carbon dioxide introduced into the microcosms from the glove box.
The groundwater was purged with treated nitrogen to remove all traces of TCE and cis-DCE prior to re-injection of TCE. Pure TCE was added to obtain concentrations of 100 mg/L(aqueous). […] The microcosms were analyzed for chlorinated ethenes, hydrogen, carbon dioxide, alcohols, and their fermentation products.

[9] = tested on: microbial culture grown on TBOS; assay: Aerobic cometabolism of cis-DCE by microorganisms grown on TBOS; assay type: cell-based; details: biologically active microcosm
Description: as §1
The microcosms for aerobic cometabolism studies were carried out as described in Example 1 under the heading “Aerobic Biodegradation.” The bacterial culture used was that described in Example 1 under the heading “Enrichment of Aerobic Culture.” cis-DCE and TCE stocks in water were prepared by saturating distilled water with cis-DCE and TCE at 30° C. TCE and cis-DCE dissolved in the water to their solubility limit. […]
The microbial culture grown on TBOS was tested for its ability to cometabolize cis-DCE. […] Four microcosms and two controls were evaluated: a poisoned control with TBOS and cis-DCE; an autoclaved control with TBOS and cis-DCE; two biologically active microcosms with TBOS and cis-DCE; a resting cell microcosm with only cis-DCE; and an acetylene block microcosm with TBOS and cis-DCE.

[10] = tested on: microbial culture grown on TBOS; details: cited from earlier work
[11] = organosiloxanes, Table 2, key given under Table 1
[12] = pH 7.8 (site groundwater), 30 °C, 10 mg/L
[13] = organosilanes, Table 1, rates approximately based on half lives

## c1ccc(O[Si](Oc2ccccc2)(Oc2ccccc2)O[Si](Oc2ccccc2)(Oc2ccccc2)Oc2ccccc2)cc1 [compound 22]
[1]; [11]
  Hydrolysis rate: Slow (Slow - 1 month)

## CCC(CC)CO[Si](OCC(CC)CC)(OCC(CC)CC)OCC(CC)CC [No. 3, Tetrakis(2-ethylbutoxy) silane]
[2]; listed as TKEBS
  rate of hydrolysis compared with TBOS: much slower rate; also recorded: about an order of magnitude lower
[2]; pH 5.0, 30 °C, 10 mg/L
  Rates of Hydrolysis Based on 2-ethyl-butanol production: 0.023 µmol/day
[2]
  effect of temperature on hydrolysis: Very little increase
  factor of increase in rate of hydrolysis on ten-fold increase in concentration: 10
[2]; pH 7.0, 15 °C, 10 mg/L
  Rates of Hydrolysis Based on 2-ethyl-butanol production: 0.011 µmol/day
[2]; pH 7.0, 30 °C, 10 mg/L
  Rates of Hydrolysis Based on 2-ethyl-butanol production: 0.012 µmol/day
[2]; pH 7.0, 30 °C, 100 mg/L
  Rates of Hydrolysis Based on 2-ethyl-butanol production: 0.105 µmol/day
[2]; [12]
  Rates of Hydrolysis Based on 2-ethyl-butanol production: 0.011 µmol/day
[2]; pH 9.0, 30 °C, 10 mg/L
  Rates of Hydrolysis Based on 2-ethyl-butanol production: 0.022 µmol/day

## CCCCO[Si](OCCCC)(OCCCC)O[Si](OCCCC)(OCCCC)OCCCC [compound 21]
[1]; [11]
  Hydrolysis rate: Slow (Slow - 1 month)

## Tetrakis(1-hydroxypropoxy) silane [compound 17]
[1]; [13]
  Hydrolysis rate: Fast

## CCC(C)CO[Si](OCC(C)CC)(OCC(C)CC)OCC(C)CC (stereo not drawn) [compound 13, Tetrakis(2-methylbutoxy) silane]
[1]; [13]
  Hydrolysis rate: Very Slow

## CC(=O)O[Si](OC(C)=O)(OC(C)=O)OC(C)=O [compound 5, Silicon tetraacetate]
[1]; [13]
  Hydrolysis rate: Very Fast

## CCCCO[Si](OCCCC)(OCCCC)OCCCC [compound 2, Tetrabutoxysilane]
[1]; [13]
  Hydrolysis rate: Slow (Slow - 1 month)

## CCCCO[Si](OCCCC)(OCCCC)OCCCC [No. 2, Tetrabutoxysilane]
[3]; TBOS 1 g/L added at start of test
  duration of TCE transformation resulting from addition of only TBOS: over 500 days
[3]; anaerobic Pt. Mugu microcosm, TBOS 1 g/L
  persistence of TBOS in the microcosm: over 450 days
[4]
  period over which hydrolysis to the alcohol occurs: two month
[5]
  solubility: very low
[2]; 30 °C, 10 mg/L
  1-butanol formed per TBOS hydrolyzed: 4 moles of 1-butanol per mole of TBOS
  rate of transformation at pH 5 and pH 9 compared to pH 7: increased by a factor of two
[2]; pH 5.0, 30 °C, 10 mg/L
  Rates of Hydrolysis Based on 1-butanol production: 0.19 µmol/day
  Rates of Hydrolysis Based on TBOS degradation: -0.160 µmol/day
[2]
  effect of temperature on hydrolysis: Very little increase
  factor of increase in rate of hydrolysis on ten-fold increase in concentration: 4
[2]; pH 7.0, 15 °C, 10 mg/L
  Rates of Hydrolysis Based on 1-butanol production: 0.08 µmol/day
  Rates of Hydrolysis Based on TBOS degradation: -0.060 µmol/day
[2]; pH 7.0, 30 °C, 10 mg/L
  Rates of Hydrolysis Based on 1-butanol production: 0.08 µmol/day
  Rates of Hydrolysis Based on TBOS degradation: -0.062 µmol/day
[2]; pH 7.0, 30 °C, 100 mg/L
  Rates of Hydrolysis Based on 1-butanol production: 0.26 µmol/day
  Rates of Hydrolysis Based on TBOS degradation: -0.208 µmol/day
[2]; [12]
  Rates of Hydrolysis Based on 1-butanol production: 0.16 µmol/day
  Rates of Hydrolysis Based on TBOS degradation: -0.110 µmol/day
[2]; pH 9.0, 30 °C, 10 mg/L
  Rates of Hydrolysis Based on 1-butanol production: 0.22 µmol/day
  Rates of Hydrolysis Based on TBOS degradation: -0.151 µmol/day

## CCCC(=O)O[Si](OC(=O)CCC)(OC(=O)CCC)OC(=O)CCC [compound 7, Silicon tetrabutyrate]
[1]; [13]
  Hydrolysis rate: Fast

## CCO[Si](OCC)(OCC)O[Si](OCC)(OCC)O[Si](OCC)(OCC)OCC [compound 23]
[1]; [11]
  Hydrolysis rate: Slow (Slow - 1 month)

## CCC(=O)O[Si](OC(=O)CC)(OC(=O)CC)OC(=O)CC [compound 6, Silicon tetrapropionate]
[1]; [13]
  Hydrolysis rate: Fast

## CC(C)O[Si](OC(C)C)(OC(C)C)OC(C)C [compound 18, Tetrakis(1-methylethoxy) silane]
[1]; [13]
  Hydrolysis rate: Slow (Slow - 1 month)

## C=CCl [VC, vinyl chloride]
[3]; TBOS 1 g/L
  incubation time after which dechlorination of the substance was observed: about 125 days

## c1ccc(O[Si](Oc2ccccc2)(Oc2ccccc2)Oc2ccccc2)cc1 [No. 4, Tetraphenoxysilane]
[4]
  period over which hydrolysis to the alcohol occurs: weeks

## Cl/C=C\Cl [cis-DCE, cis-dichloroethylene]
[3]; TBOS 1 g/L
  incubation time after which dechlorination of the substance was observed: about 90 days

## Tetrakis(benzylmethoxy) silane [compound 16]
[1]; [13]
  Hydrolysis rate: Fast

## CCC(C)O[Si](OC(C)CC)(OC(C)CC)OC(C)CC (stereo not drawn) [compound 14, Tetrakis(1-methylpropoxy) silane]
[1]; [13]
  Hydrolysis rate: Slow (Slow - 1 month)

## CCC(CC)CO[Si](OCC(CC)CC)(OCC(CC)CC)OCC(CC)CC [compound 3, Tetrakis(2-ethylbutoxy) silane]
[1]; [13]
  Hydrolysis rate: Very Slow

## ClC=C(Cl)Cl [TCE, Trichloroethylene]
[6]; TBOS and TCE, acetylene in head space, in 140 hours
  TCE transformation in acetylene-blocked microcosm: about 20%
[6]; TCE 0.89 mg/L (1.6 μmol), microcosm with TBOS 20 mg/L added
  time to complete cometabolism of TCE: ≤ 65 h
[6]; resting cells, no TBOS added
  TCE cometabolism by resting cells, less than that achieved with TBOS addition: 15-20%
[3]; TBOS 1 g/L
  incubation time after which dechlorination of the substance was observed: 40 days
[7]
  TCE transformation (in words): rapidly transformed to c-DCE
[8]; 125 mL serum bottles, groundwater microcosms
  anaerobic TCE transformation in initial experiments (in words): complete transformation of TCE to cis-DCE
[8]; TCE 100 mg/L, September '97 groundwater containing TKEBS and 2-ethylbutanol, 30 °C
  time for dechlorination of TCE to cis-DCE: 14 days

## Cl[C@@H]1O[C@@H]1Cl [cis-DCE epoxide]
[9]
  half-life of cis-DCE epoxide transformation: about 35 hours
[10]
  half-life of abiotic transformation of cis-DCE epoxide: 70 h

## CCCO[Si](OCCC)(OCCC)OCCC [compound 1, Tetrapropoxysilane]
[1]; [13]
  Hydrolysis rate: Slow (Slow - 1 month)

## Tetraphenoxysilane [compound 4]
[1]; [13]
  Hydrolysis rate: Very Fast

## CCCO[Si](OCCC)(OCCC)O[Si](OCCC)(OCCC)OCCC [compound 20]
[1]; [11]
  Hydrolysis rate: Slow (Slow - 1 month)

## C=CCO[Si](OCC=C)(OCC=C)OCC=C [compound 11, Tetraallyloxy silane]
[1]; [13]
  Hydrolysis rate: Slow (Slow - 1 month)

## CCO[Si](OCC)(OCC)O[Si](OCC)(OCC)OCC [compound 19]
[1]; [11]
  Hydrolysis rate: Slow (Slow - 1 month)

## CC(C)CO[Si](OCC(C)C)(OCC(C)C)OCC(C)C [compound 15, Tetrakis(2-methylpropoxy) silane]
[1]; [13]
  Hydrolysis rate: Slow (Slow - 1 month)
